{"source": "patent US8821921B2", "about": "“Vitamin D3 for the transdermal treatment of pain and inflammation” (Anzamed International Limited, priority 2009, dated 2014)", "origin": "cited, not measured here", "test_system": "diabetic neuropathic pain", "conditions": "daily oral doses, patients with diabetic neuropathy", "data": [{"smiles": "C=C1CC[C@H](O)C/C1=C/C=C1\\CCC[C@]2(C)[C@@H]([C@H](C)CCCC(C)C)CC[C@@H]12", "note": "[vitamin D3, cholecalciferol]", "values": [{"measurement": "diabetic neuropathic pain", "value": "significant reduction"}]}]}
